Data as given in ChEMBL document CHEMBL1201862, “PubChem BioAssay data set” (2004).
Calls of active or inactive are those of the source.

Tests used:
[1] = biological target: T1, Short transient receptor potential channel 4 (Mus musculus, UniProt Q9QUQ5); test: mouse TRPC4 channel activators, dose response, cell-based, HEK293 TRPC4/mu-opioid, Fluo-4 calcium (AID 434937); format: functional
T1 sequence (Q9QUQ5 whole entry): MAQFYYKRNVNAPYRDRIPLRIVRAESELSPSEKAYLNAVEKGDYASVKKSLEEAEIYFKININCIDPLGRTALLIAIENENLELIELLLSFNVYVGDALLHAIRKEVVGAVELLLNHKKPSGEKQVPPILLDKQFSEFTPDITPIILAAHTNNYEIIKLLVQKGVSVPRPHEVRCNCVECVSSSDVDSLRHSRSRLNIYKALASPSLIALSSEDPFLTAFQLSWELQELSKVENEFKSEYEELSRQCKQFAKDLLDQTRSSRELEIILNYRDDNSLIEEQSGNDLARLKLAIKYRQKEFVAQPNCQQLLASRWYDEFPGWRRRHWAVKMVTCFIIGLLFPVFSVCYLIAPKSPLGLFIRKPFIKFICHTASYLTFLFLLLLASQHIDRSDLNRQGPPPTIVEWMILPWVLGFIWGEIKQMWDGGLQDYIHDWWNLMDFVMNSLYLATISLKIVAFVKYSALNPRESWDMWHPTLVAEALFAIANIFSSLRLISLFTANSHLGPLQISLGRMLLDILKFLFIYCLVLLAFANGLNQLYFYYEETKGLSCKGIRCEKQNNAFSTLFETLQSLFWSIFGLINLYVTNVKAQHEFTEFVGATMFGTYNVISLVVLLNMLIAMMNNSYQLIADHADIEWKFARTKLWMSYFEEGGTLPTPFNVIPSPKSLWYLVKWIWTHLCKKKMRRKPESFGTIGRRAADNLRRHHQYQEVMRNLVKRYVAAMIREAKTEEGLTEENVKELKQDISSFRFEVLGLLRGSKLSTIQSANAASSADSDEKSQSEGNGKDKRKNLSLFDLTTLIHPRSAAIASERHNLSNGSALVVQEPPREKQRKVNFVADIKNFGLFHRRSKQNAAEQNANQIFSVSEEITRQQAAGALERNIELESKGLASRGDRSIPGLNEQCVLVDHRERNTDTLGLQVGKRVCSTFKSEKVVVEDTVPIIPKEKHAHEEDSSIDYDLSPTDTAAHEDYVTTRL

Cytochrome P450 2C9 = Cytochrome P450 2C9 (Homo sapiens, UniProt P11712)
Cytochrome P450 2D6 = Cytochrome P450 2D6 (Homo sapiens, UniProt P10635);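 also: CYP2D6 member of a cytochrome P450 panel assay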
Cytochrome P450 3A4 = Cytochrome P450 3A4 (Homo sapiens, UniProt P08684);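 also: CYP3A4 tested as one member of a cytochrome P450 panel screen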
Cytochrome P450 2C19 = Cytochrome P450 2C19 (Homo sapiens, UniProt P33261); test: Cytochrome panel assay with activity outcomes. Panel member name: p450-cyp2c19 Compounds with AC50 equal or less than 10 uM are considered active; format: functional; details: read-out: AC50
Vero = test: cells; format: functional; details: Chlorocebus sabaeus
[2] = biological target: T1, Short transient receptor potential channel 4; test: mouse TRPC4 channel inhibitors, dose response, cell-based, HEK293 TRPC4/mu-opioid, Fluo-4 calcium (AID 434942); format: functional;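 also: potency of inhibitors blocking the TRPC4 calcium response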
cells [3] = format: functional, cell-based
cells [4] = format: functional, cell-based; remark: listed apart in the source
H9c2 = test: cells; format: functional, cell-based; details: Rattus norvegicus, H9c2, Myocardium;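 also: confirmatory concentration-response retest of ultra-high-throughput screening hits for modulation of myocardial damage; cell death induced by hydrogen peroxide oxidative stress; compound pretreatment for 60 min then peroxide exposure for 2 h; potency is for protecting the cells against peroxide damage rather than for killing them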
Fatty acid synthase [5] = biological target: T2, Fatty acid synthase (Homo sapiens, UniProt P49327); test: FAS thioesterase domain inhibitors, dose response, biochemical, kinetic fluorescence intensity (AID 624326); format: functional;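 also: rate of fluorescence rise from hydrolysis of a fluorogenic O-methyl fluorescein ester substrate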
Fatty acid synthase [6] = biological target: T2, Fatty acid synthase; test: FAS thioesterase domain inhibitors, dose response, biochemical, endpoint fluorescence intensity, uHTS hits (AID 624327); format: functional;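 also: fluorescence from hydrolysis of an O-methyl fluorescein acyl ester substrate by the enzyme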
Melanocortin receptor 4 = Melanocortin receptor 4 (Homo sapiens, UniProt P32245); test: MC4R antagonist potency on cAMP, dose response, cell-based, TR-FRET, biased antagonists (AID 602298); format: functional;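 also: antagonist potency against agonist-stimulated cAMP production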
[7] = nonselective inhibitors of cellular cAMP signaling, dose response, counter-screen for MC4R biased antagonist project, cell-based, TR-FRET cAMP detection (AID 602305); format: functional;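 also: U2OS cells stimulated with forskolin near its EC80 as the cAMP inducer; potency is for inhibition of forskolin-stimulated cAMP signaling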
[8] = Luminescence Cell-Based Dose Confirmation HTS to Identify Inhibitors of Platelet Dense Granule Release. [Related pubchem assays: 1663 (Primary HTS), 1678 (Summary of Project)]; format: functional
[9] = biological target: Luciferin 4-monooxygenase (Photinus pyralis, UniProt P08659); test: firefly luciferase enzyme inhibitors, dose response, biochemical, luminescence (AID 1891)
Chain of Luciferin 4-monooxygenase (P08659 whole entry): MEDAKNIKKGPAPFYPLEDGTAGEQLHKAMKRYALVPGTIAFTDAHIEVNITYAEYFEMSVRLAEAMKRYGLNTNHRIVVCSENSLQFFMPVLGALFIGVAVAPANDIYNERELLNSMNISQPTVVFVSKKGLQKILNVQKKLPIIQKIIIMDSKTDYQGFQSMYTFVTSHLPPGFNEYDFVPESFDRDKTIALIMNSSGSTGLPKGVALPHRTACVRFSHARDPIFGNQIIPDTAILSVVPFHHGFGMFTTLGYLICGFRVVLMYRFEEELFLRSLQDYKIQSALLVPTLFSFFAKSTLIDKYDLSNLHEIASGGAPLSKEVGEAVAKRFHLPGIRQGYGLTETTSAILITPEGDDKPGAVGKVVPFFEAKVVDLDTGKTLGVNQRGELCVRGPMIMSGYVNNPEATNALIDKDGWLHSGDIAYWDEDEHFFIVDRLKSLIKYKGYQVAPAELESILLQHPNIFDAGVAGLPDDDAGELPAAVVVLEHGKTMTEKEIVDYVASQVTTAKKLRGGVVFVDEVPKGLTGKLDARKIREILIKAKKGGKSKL

Chain of Cytochrome P450 2C9 (P11712 whole entry): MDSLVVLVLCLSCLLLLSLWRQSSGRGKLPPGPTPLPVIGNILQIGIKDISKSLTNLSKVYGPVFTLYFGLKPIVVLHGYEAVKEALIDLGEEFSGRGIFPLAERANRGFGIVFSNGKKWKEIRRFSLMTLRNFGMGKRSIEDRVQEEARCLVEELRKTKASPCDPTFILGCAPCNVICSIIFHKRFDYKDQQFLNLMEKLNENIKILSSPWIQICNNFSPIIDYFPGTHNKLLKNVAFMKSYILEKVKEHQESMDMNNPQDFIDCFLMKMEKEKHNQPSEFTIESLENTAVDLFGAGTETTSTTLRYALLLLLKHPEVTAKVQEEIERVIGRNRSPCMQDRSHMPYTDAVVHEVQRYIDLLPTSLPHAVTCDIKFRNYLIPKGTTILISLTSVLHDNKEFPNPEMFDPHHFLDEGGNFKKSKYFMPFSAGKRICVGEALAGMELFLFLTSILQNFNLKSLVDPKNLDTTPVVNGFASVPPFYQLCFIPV
T2 sequence (P49327 whole entry, the tested form may be a part): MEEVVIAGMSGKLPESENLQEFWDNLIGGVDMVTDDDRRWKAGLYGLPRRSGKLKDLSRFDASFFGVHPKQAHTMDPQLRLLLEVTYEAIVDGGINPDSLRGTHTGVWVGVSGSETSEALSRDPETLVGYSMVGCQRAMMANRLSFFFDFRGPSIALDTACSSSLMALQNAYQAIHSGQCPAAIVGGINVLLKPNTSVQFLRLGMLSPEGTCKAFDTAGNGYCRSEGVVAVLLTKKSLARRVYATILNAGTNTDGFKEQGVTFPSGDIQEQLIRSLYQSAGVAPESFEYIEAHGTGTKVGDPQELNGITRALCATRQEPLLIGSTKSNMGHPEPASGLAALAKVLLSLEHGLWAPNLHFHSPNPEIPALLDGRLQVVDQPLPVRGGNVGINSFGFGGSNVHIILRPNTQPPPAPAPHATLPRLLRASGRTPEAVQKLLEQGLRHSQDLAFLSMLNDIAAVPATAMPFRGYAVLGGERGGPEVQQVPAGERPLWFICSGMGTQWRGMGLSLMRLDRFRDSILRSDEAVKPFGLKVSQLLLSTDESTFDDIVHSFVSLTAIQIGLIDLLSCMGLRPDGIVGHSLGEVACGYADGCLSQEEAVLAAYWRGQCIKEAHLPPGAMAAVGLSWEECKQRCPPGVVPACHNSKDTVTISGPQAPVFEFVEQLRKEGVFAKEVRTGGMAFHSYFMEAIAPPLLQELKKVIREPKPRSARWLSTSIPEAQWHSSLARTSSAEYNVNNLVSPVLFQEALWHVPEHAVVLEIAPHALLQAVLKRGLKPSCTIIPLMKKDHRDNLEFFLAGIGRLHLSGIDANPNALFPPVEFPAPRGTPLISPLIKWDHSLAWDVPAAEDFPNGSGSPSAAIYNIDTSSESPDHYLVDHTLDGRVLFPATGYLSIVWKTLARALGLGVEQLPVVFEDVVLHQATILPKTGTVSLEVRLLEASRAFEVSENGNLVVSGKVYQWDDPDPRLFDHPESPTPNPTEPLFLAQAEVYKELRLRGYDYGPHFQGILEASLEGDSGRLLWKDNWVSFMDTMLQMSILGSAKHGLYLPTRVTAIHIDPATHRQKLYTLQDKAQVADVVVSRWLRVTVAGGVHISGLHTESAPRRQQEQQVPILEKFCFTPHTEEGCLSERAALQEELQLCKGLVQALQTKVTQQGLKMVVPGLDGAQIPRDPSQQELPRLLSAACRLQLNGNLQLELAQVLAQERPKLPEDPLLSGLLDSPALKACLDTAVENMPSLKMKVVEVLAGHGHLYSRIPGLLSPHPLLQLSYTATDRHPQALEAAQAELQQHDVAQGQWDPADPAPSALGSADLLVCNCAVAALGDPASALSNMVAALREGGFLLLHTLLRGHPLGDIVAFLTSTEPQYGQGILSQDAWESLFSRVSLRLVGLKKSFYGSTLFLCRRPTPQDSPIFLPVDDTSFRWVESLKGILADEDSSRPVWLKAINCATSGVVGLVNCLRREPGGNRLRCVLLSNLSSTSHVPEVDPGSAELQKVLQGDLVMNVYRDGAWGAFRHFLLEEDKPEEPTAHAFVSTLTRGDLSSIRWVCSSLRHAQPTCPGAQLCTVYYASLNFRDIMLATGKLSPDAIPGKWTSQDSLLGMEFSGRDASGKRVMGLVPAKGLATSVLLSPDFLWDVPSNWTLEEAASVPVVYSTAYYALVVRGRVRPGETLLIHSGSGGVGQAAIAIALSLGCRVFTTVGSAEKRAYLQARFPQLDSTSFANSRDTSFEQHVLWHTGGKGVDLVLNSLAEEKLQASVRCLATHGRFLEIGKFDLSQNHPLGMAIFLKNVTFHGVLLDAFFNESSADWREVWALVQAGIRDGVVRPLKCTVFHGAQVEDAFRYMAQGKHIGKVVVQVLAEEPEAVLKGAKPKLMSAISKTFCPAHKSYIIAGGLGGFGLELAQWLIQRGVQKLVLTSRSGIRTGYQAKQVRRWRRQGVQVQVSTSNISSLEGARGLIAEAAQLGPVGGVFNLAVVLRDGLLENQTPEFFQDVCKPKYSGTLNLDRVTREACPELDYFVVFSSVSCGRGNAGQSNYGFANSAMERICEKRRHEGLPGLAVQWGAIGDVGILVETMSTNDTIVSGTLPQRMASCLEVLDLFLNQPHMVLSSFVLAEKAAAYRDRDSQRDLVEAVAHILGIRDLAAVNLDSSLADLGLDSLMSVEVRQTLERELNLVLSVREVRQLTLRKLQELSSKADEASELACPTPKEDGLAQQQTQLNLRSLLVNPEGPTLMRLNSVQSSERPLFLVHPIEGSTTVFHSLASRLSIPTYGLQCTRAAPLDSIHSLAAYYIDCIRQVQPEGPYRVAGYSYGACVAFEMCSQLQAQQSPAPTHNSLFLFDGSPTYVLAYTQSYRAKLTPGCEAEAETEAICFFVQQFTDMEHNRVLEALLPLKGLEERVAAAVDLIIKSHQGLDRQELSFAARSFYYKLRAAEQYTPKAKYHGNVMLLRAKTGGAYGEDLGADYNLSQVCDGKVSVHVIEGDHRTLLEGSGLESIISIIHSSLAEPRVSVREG
Chain of Cytochrome P450 2C19 (P33261 whole entry): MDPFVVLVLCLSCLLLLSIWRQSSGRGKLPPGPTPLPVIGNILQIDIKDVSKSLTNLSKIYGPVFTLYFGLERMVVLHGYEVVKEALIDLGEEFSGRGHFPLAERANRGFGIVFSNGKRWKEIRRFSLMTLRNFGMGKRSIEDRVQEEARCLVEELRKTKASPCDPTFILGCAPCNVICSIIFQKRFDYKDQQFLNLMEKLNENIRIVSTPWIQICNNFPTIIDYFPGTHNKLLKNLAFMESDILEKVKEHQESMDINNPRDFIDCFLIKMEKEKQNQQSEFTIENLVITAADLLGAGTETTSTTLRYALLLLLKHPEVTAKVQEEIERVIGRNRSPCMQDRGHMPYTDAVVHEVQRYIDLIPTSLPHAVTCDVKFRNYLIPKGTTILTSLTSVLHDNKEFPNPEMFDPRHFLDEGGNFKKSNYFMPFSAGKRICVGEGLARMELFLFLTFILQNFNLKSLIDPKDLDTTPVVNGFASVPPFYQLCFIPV
Chain of Cytochrome P450 3A4 (P08684 whole entry): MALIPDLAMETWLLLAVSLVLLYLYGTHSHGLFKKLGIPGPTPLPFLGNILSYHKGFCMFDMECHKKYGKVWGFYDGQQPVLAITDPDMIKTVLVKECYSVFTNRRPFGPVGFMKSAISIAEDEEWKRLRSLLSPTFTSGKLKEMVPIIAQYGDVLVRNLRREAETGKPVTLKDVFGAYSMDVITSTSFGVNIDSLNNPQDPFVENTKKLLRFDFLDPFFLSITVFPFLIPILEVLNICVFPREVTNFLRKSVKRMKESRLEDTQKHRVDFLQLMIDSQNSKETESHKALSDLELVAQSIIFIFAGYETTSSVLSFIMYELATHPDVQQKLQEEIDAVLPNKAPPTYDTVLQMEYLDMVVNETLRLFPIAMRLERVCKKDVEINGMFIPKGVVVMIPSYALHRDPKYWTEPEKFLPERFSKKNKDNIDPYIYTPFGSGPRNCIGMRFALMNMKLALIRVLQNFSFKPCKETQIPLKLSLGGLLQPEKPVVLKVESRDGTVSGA
Chain of Melanocortin receptor 4 (P32245 whole entry): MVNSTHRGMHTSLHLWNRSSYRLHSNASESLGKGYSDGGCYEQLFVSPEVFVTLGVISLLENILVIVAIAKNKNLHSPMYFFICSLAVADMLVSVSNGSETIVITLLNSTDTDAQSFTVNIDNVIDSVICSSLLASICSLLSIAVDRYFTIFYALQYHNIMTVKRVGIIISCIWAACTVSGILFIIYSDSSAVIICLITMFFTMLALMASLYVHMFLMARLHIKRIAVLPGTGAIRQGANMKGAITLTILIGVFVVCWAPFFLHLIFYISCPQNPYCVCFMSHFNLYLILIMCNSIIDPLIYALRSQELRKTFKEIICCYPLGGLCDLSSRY

Cc1sc2ncnc(NCC(c3ccco3)N(C)C)c2c1C (stereo not drawn)
EC50 [1]: 841 nM (active)

FC(F)(F)c1ccccc1-c1nccc(N2CCNCC2)n1
AC50 (Cytochrome P450 2C9): inconclusive

COc1ccc(C(=O)c2ccccc2)cc1Br
AC50 (Cytochrome P450 2D6): 22.4 µM (inconclusive) | AC50 (Cytochrome P450 2C9): inconclusive

N#Cc1nc(-c2ccc(F)cc2)oc1N1CCCC1
AC50 (Cytochrome P450 3A4): 14.1 µM (inconclusive) | AC50 (Cytochrome P450 2C9): inconclusive | AC50 (Cytochrome P450 2C19): 14.1 µM (inconclusive)

COc1cc(C(=O)NC(=S)NNC(=O)c2ccc3c(c2)OCO3)cc(OC)c1OC
CC50 (Vero): 20.2 µM (active)

COc1ccc(C)cc1N(C(=O)c1snc(C(N)=O)c1N)C(C(=O)NC1CCCCC1)c1ccc(C)o1 (stereo not drawn)
EC50 [2]: 211 nM (active)

CC1CCCN(c2c([N+](=O)[O-])c(=O)oc3ccccc23)C1 (stereo not drawn)
IC50 (cells [3]): > 29.9 µM (inactive) | EC50 (cells [4]): > 29.9 µM (inactive)

COc1ccc(C2=NOC(COc3ccc4c(C)cc(=O)oc4c3)C2)c(OC)c1 (stereo not drawn)
CC50 (Vero): 7.23 µM (active)

Cc1ccc(-c2nnc3ccc(SCC(=O)N4CCCc5ccccc54)nn23)cc1
IC50 (H9c2): 38.4 µM (inactive) | IC50 (Fatty acid synthase [5]): 5.68 µM (active) | IC50 (Fatty acid synthase [6]): 4.07 µM (active)

Brc1cc2c(cc1COc1ccc(-c3nn[nH]n3)cc1)OCO2
EC50 [2]: 5310 nM (active)

COc1cc(OC)c2ccc(=O)oc2c1C(CC(=O)N1CCN(c2ccccc2)CC1)c1ccc2c(c1)OCO2 (stereo not drawn)
IC50 (H9c2): > 79 µM (inactive)

CCN(CC)S(=O)(=O)c1ccc(Cl)c(C(=O)OC2CC(C)OC2=O)c1 (stereo not drawn)
IC50 (Melanocortin receptor 4): > 64.6 µM (inactive) | IC50 [7]: > 64.6 µM (inactive)

CC(=O)c1c(C)nn(CC(=O)NC2CCCN(Cc3ccc(CC(C)C)cc3)C2)c1C (stereo not drawn)
EC50 [8]: > 112 µM (not active) | EC50 [1]: 1190 nM (active) | EC50 [9]: > 112 µM (not active)

Cn1c(S)nnc1-c1cccc2ccccc12
EC50 [1]: 841 nM (active)
